Measured values: patent US20110189174A1, “COMPOSITIONS AND METHODS FOR TREATING, REDUCING, AMELIORATING, ALLEVIATING, OR INHIBITING PROGRESSION OF, PATHOGENIC OCULAR NEOVASCULARIZATION” (priority 2010, published 2011)

Key:
[1] = Intraocular pressure (Tono-pen) in monkeys after intravitreal injection; type: in vivo, cynomolgus monkeys (Macaca fascicularis)
Procedure: Once the phase Ib study was completed, and it was established that the drug suspension in oil would not interfere with either laser administration, evaluation of CNV or cause adverse effects, phase II was initiated. On days 1, and 15 both eyes of monkeys received 50 μL of Lucentis (0.5 mg/eye), vehicle (0 mg/eye), BOL-303050-X (1.5 mg/eye), BOL-303054-X (1.5 mg/eye) or BOL-303055-X (1.5 mg/eye) (Table 2). Intravitreous injection was performed for each by eye aiming towards mid-vitreous body. Dosing in the right eye was alternated for successive doses (as applicable) at approximately the 11 o'clock and 10 o'clock positions. Dosing in the left eye was alternated for successive doses (as applicable) from approximately the 1 o'clock and 2 o'clock positions.
IOP was done in conjunction with the OE using a Tono-pen on anesthetized monkeys on days 1, 3, 7, 15, and 31 of dosing Phase II and on the day of scheduled sacrifice (day 38).
Grade IV lesions were analyzed using either Fisher's exact probability test (2-Tail) or Chi square test (χ2). For the analysis of delta changes in TOP a two-way ANOVA with repeated measures followed by the contrast procedure was performed on Box-Cox transformed data if needed. Unless indicated otherwise, data are presented as means±SEM unless stated otherwise. P<0.05 was considered statistically significant.

[2] = test system: human retinal endothelial cells (HREC); experiment: Testing 6: VEGF-induced HREC proliferation (MTS assay), BOL-303055-X and Avastin alone and in combination; type: cell-based; settings: for Inhibition of VEGF-induced HREC proliferation, agent alone: Avastin 3-300 ng/ml (significant from 30 ng/ml)
Procedure: HREC were first cultured overnight in a 96-well plate coated with fibronectin. The next day, cells were serum-starved for 2 hours. The medium containing different agents as shown in Table 12 was pre-incubated for 1 hour before being added into appropriate wells. The cells were further cultured at 37° C., 5% CO2, and 95% humidity for another 3 days. After that, cell proliferation was estimated by the MTS assay—a cell metabolic activity assay (disclosed hereinabove).
A 96-well plate was coated with human fibronectin (10 μg/ml) for 5 h at 37° C., 5% CO2, and 95% humidity. HREC were collected from flasks by EDTA-trypsin treatment and re-suspended in 10% FBS CS-C medium at 18,000 cells/ml. Cells (200 μl/well) were added to the plate and cultured for overnight at 37° C., 5% CO2, and 95% humidity. Next day, medium was aspirated and serum-free medium was added to wells at 200 μl/well for 2 hours.
Normal IgG was also added in such a way that all groups contained the same amount of IgG protein. All medium solutions were incubated for 1 h at 37° C., 5% CO2, and 95% humidity. After carefully aspirating the medium from cells, 200 μl of the medium containing different agents was added into appropriate wells. The cells were further cultured for 3 days.
(§1) At the end of incubation, the medium was carefully aspirated from cells and 120 μl of MTS working solution was added into all wells. The plate was incubated at 37° C., 5% CO2, and 95% humidity for 1 hour and then read by a plate reader at 490 nm wavelength.
(§2) Median optical density (OD) was generated from different groups. Data were expressed as mean±SEM of the OD values. Statistical analysis was performed using a three-way ANOVA followed by the contrast procedure on log-transformed data, and P<0.05 was considered statistically significant. […] All the data from the individual wells were fitted to a re-parameterized four-parameter logistic equation to obtain IC50 using similar methodology as that previously described and utilizing the statistical analysis software JMP (SAS Institute, Cary, N.C.).

[3] = test system: human retinal endothelial cells (HREC); experiment: Testing 5: VEGF-induced HREC proliferation (MTS assay), echistatin and Avastin alone and in combination; type: cell-based
Procedure: HREC were first cultured overnight in a 96-well plate coated with fibronectin. The next day, cells were serum-starved for 2 h before treatment. Medium containing different agents as shown in table below was pre-incubated for 1 h before being added to cells. The cells were cultured at 37° C., 5% CO2, and 95% humidity for another 3 days. After that, cell proliferation was estimated by the MTS assay. […] Normal human IgG was also added to different groups in such a way that all groups contained the same amounts of IgG protein.
A 96-well plate was coated with human fibronectin (10 μg/mL) for 5 hours. HREC were collected from flasks by EDTA-trypsin treatment and re-suspended in 10% FBS CS-C medium at 15,000 cells/mL. Cells (200 μL) were added to the plate and cultured overnight at 37° C., 5% CO2, and 95% humidity. Next day, the medium was removed and 200 μl/well serum free medium was added.
All medium solutions were incubated for 1 h at 37° C. After carefully aspirating the medium from cells, […], of the medium containing the different agents was added into appropriate wells. The cells were cultured for another 3 days.
as §1, with “wells including blank wells (without cells).” for “wells.”, “then absorbance was” for “then”
as §2, with “one or two-way” for “three-way”, “using Box-Cox transformed data if needed,” for “followed by the contrast procedure on log-transformed data,”

[4] = rat, in vivo
Procedure: The anterior segment of the eye was examined using a slit-lamp biomicroscopy for excluding any animals with abnormalities that might interfere with the study. Fundus photography and fluorescein angiography (FA) were performed to document the health of the retina and the ocular circulation using a TRC 50EX fundus camera (Topcon). For FA, 10% sodium fluorescein was injected intravenously (50 mg/kg of body weight) through the tail vein or the vein under the incisor before the procedure.
Immediately after placement of laser photocoagulation, the experimental eyes received an intravitreal injection of either a compound or a vehicle as described in Table 5. Following the disinfection of ocular surface with 5% betadine and 0.9% saline solutions, the injections were performed with aid of a surgical microscope using 0.3 mL syringes with a 31-gauge ½-inch long needle (Ultra-Fine II™ Insulin syringe, BD, Franklin Lakes, N.J.).
Two weeks after photocoagulation, all rats were examined under anesthesia and pupil dilation with slit-lamp biomicroscopy, fundus photography and FA as described in the baseline examination.

[5] = BOL-303055-X 1 nM, VEGF 10 ng/ml

| Compound | Reduction of IOP versus baseline ([1]; day 38 only, 1.5 mg/eye intravitreal days 1 and 15) [mm Hg] | IOP change compared with baseline ([1]; right eyes day 15, left eyes days 3 and 15) | Increase in IOP compared to baseline ([1]; right eyes, day 31, 1.5 mg/eye intravitreal days 1 and 15) [mm Hg] | HREC proliferation under basal conditions ([2]; 1 nM, no VEGF) | Enhancement of Avastin potency ([2]; BOL-303055-X 1 nM) | Inhibition of VEGF-induced HREC proliferation, agent alone [2, 5] | Combination effect with Avastin on VEGF-induced HREC proliferation (synergistic/additive) ([2]; BOL-303055-X 1 nM, Avastin 10 to 100 ng/ml) | IC50 ± SE of Avastin alone on inhibiting VEGF-induced proliferation of HREC ([3]; VEGF 10 ng/mL, estimated) [mg/L] | Inhibition of VEGF-induced HREC proliferation, agent alone ([3]; echistatin 2 nM, Avastin 0.625-10 ng/ml (significant at 10 ng/ml), VEGF 10 ng/mL) | HREC proliferation under basal conditions ([3]; echistatin 2 nM, Avastin 0.625-10 ng/ml, no VEGF) | Intraocular inflammation and retinal vascular congestion [4] | IC50 ± SE of Avastin plus BOL-303055-X on inhibiting VEGF-induced proliferation of HREC ([2]; VEGF 10 ng/ml, BOL-303055-X 1 nM, estimated) [mg/L] |
| --- | --- | --- | --- | --- | --- | --- | --- | --- | --- | --- | --- | --- |
| COc1ccc(S(=O)(=O)N[C@@H](CNc2nc(C)nc(N3CCC(c4ccc5c(n4)NCCC5)CC3)c2C)C(=O)O)cc1 [BOL-303050-X] | 4 | – | – | – | – | – | – | – | – | – | – | – |
| CCc1nc(NC[C@H](NC(=O)OCc2ccccc2)C(=O)O)c(C)c(N2CCC(c3ccc4c(n3)NCCC4)CC2)n1 [BOL-303055-X] | – | reduced IOP | 4 | significantly inhibited | approximately 3.8 fold | reduced VEGF-induced proliferation in a statistically significant manner | synergistic effects | – | – | – | – | – |
| bevacizumab [Avastin, reference compound] | – | – | – | – | – | dose-dependent inhibition | – | 0.021 | dose-dependent inhibition | no effect | no intraocular inflammation and retinal vascular congestion was recorded | 0.016 |
